Laboratory results: paper PMC12766724, “Synthesis, Anthelmintic Activity, and Mechanism of Action of 5‑Aryl‑1H‑indoles” (Journal of Agricultural and Food Chemistry, 2025)

How the values were obtained:
Format in all cases: in vivo, Caenorhabditis elegans
[1] = tested on: C. elegans MCII mutant RP2699; test: Acute motility of young adults on WMicrotracker ONE; settings: 50 μM; 24 h
Procedure: (§1) The effect of compounds on C. elegans N2 and SDH mutant strains was measured in a similar manner. Briefly, for evaluation of the acute effect of the compounds, age-synchronized young adults of each strain, kept in S complete medium supplemented with E. coli OP50 (3 mg/mL, fresh weight), were transferred onto microtiter plates (96-well, U bottom), and their initial motility was measured for 30 min. […] Afterward, the compounds were washed away, and worms, supplemented with fresh liquid media and food, were distributed onto 96-well plates and allowed to recover. Their activity was measured using WMicrotracker ONE at the indicated time points.
(§2) To experimentally support this promising initial finding, we tested the effect of i-19 against several C. elegans MCII mutant strains. These nematodes carry point mutations that result in amino acid changes in regions of subunits SDHC and SDHD that contribute to the formation of the ubiquinone-binding pocket, thereby influencing its shape and the ability of inhibitors to interact with the protein. […] The compounds were tested in multiple setups. At first, young adults were exposed to higher doses (100, 50, and 10 μM) of the compounds for up to 48 h, and changes in motility were evaluated using WMicrotracker. For both compounds, we observed a less pronounced decrease in movement rates of MCII mutants compared to wild-type worms, in both a dose- and time-dependent manner (Figure ).

[2] = tested on: C. elegans MCII mutant RP2700; test: as above; settings: 50 μM; 24 h
Procedure: as §1, §2

[3] = tested on: C. elegans MCII mutant RP2702; test: as above; settings: 50 μM; 24 h
Procedure: as §1, §2

C. elegans wild-type N2 = test: as above; settings: 50 μM; 24 h
Procedure: as §1, §2

C. elegans N2 = test: Scoring of developmental rates, L1 exposed 5 days; design: key: 1 = dead/arrested at L1 … 5 = healthy, normal reproduction
From the text: (§3) Dead or mostly immobile worms, arrested at the L1 stage, received a score of 1. Populations with severely delayed development were scored as 2. More developmentally advanced, but still obviously delayed worms were given the score of 3. Adult worms that produce a noticeably lower number of progeny received a score of 4. Healthy worms that reproduce normally (i.e., hundreds of eggs and larvae are present) were scored as 5 (see Figure C for representative images). In a typical, correctly prepared experiment, vehicle-treated populations should receive a score of 5, while worms treated with ivermectin (positive control) should receive a score of 1. […]

[4] = tested on: C. elegans complex II mutant RP2702; test: Scoring of developmental rates, L1 exposed 5 days
From the text: as §3

[5] = tested on: C. elegans complex II mutant RP2700; test: Scoring of developmental rates, L1 exposed 5 days
From the text: as §3

[6] = tested on: C. elegans complex II mutant RP2699; test: Scoring of developmental rates, L1 exposed 5 days
From the text: as §3

[7] = tested on: C. elegans wild-type and MCII mutants; test: Recovery of pretreated worms on WMicrotracker ONE; settings: 5 or 10 μM for 72 h, then wash-out and recovery
Procedure: as §1, with “Briefly,” for “The effect of compounds on C. elegans N2 and SDH mutant strains was measured in a similar manner. Briefly,”
C. elegans L1 larvae were exposed to 5 or 10 μM of the compounds for 72 h, after which the compounds were washed away, and the recovery of the nematodes was evaluated using WMicrotracker.

## Clc1ccc(-c2ccc3[nH]ccc3c2)cc1 [i-19]
[1]
  decrease of mean activity counts: 46%
[2]
  decrease of mean activity counts: 32%
[3]
  decrease of mean activity counts: 70%
C. elegans wild-type N2
  decrease of mean activity counts: 89%
C. elegans N2; 1.336 µM
  mean score (1-5): 5
C. elegans N2; 1.782 µM
  mean score (1-5): 4.222
C. elegans N2; 2.376 µM
  mean score (1-5): 4.889
C. elegans N2; 3.168 µM
  mean score (1-5): 4.889
C. elegans N2; 4.224 µM
  mean score (1-5): 4.667
C. elegans N2; 5.631 µM
  mean score (1-5): 4.444
C. elegans N2; 7.509 µM
  mean score (1-5): 4.667
C. elegans N2; 10.011 µM
  mean score (1-5): 4.444
C. elegans N2; 13.348 µM
  mean score (1-5): 4
C. elegans N2; 17.798 µM
  mean score (1-5): 2.556
C. elegans N2; 23.731 µM
  mean score (1-5): 1.333
C. elegans N2; 31.641 µM
  mean score (1-5): 1
C. elegans N2; 42.188 µM
  mean score (1-5): 1
C. elegans N2; 56.25 µM
  mean score (1-5): 1
C. elegans N2; 75 µM
  mean score (1-5): 1
C. elegans N2; 100 µM
  mean score (1-5): 1
[4]; 1.336 µM
  mean score (1-5): 5
[4]; 1.782 µM
  mean score (1-5): 5
[4]; 2.376 µM
  mean score (1-5): 5
[4]; 3.168 µM
  mean score (1-5): 5
[4]; 4.224 µM
  mean score (1-5): 4.889
[4]; 5.631 µM
  mean score (1-5): 4.889
[4]; 7.509 µM
  mean score (1-5): 5
[4]; 10.011 µM
  mean score (1-5): 4.444
[4]; 13.348 µM
  mean score (1-5): 4.889
[4]; 17.798 µM
  mean score (1-5): 4.667
[4]; 23.731 µM
  mean score (1-5): 3.889
[4]; 31.641 µM
  mean score (1-5): 1.111
[4]; 42.188 µM
  mean score (1-5): 1
[4]; 56.25 µM
  mean score (1-5): 1
[4]; 75 µM
  mean score (1-5): 1
[4]; 100 µM
  mean score (1-5): 1
[5]; 1.336 µM
  mean score (1-5): 4.778
[5]; 1.782 µM
  mean score (1-5): 4.778
[5]; 2.376 µM
  mean score (1-5): 4.667
[5]; 3.168 µM
  mean score (1-5): 4.889
[5]; 4.224 µM
  mean score (1-5): 4.778
[5]; 5.631 µM
  mean score (1-5): 4.778
[5]; 7.509 µM
  mean score (1-5): 4.667
[5]; 10.011 µM
  mean score (1-5): 4.667
[5]; 13.348 µM
  mean score (1-5): 4.333
[5]; 17.798 µM
  mean score (1-5): 3.667
[5]; 23.731 µM
  mean score (1-5): 3.444
[5]; 31.641 µM
  mean score (1-5): 1.111
[5]; 42.188 µM
  mean score (1-5): 1
[5]; 56.25 µM
  mean score (1-5): 1
[5]; 75 µM
  mean score (1-5): 1
[5]; 100 µM
  mean score (1-5): 1
[6]; 1.336 µM
  mean score (1-5): 4.667
[6]; 1.782 µM
  mean score (1-5): 4.667
[6]; 2.376 µM
  mean score (1-5): 4.556
[6]; 3.168 µM
  mean score (1-5): 4.444
[6]; 4.224 µM
  mean score (1-5): 4.556
[6]; 5.631 µM
  mean score (1-5): 4.333
[6]; 7.509 µM
  mean score (1-5): 4.444
[6]; 10.011 µM
  mean score (1-5): 4.333
[6]; 13.348 µM
  mean score (1-5): 4.111
[6]; 17.798 µM
  mean score (1-5): 3.111
[6]; 23.731 µM
  mean score (1-5): 2.778
[6]; 31.641 µM
  mean score (1-5): 2.111
[6]; 42.188 µM
  mean score (1-5): 1
[6]; 56.25 µM
  mean score (1-5): 1
[6]; 75 µM
  mean score (1-5): 1
[6]; 100 µM
  mean score (1-5): 1
[7]
  resistance of MCII mutants compared to wild-type: increased resistance of the MCII mutants
